Test results from US20200222462A1, “METHODS OF TREATMENT USING DECITABINE AND A CD123-TARGETED THERAPY” (priority 2018, published 2020).

Legend:
[1] = test system: primary CD34+ Bone marrow cells; assay: CD123 MFI by flow cytometry, primary CD34+ bone marrow cells (overall); format: cell-based; settings: for CD123 MFI / expression in primary bone marrow cells: four normal donors, dose range
Procedure: (§1) (c) Fold change in CD123 MFI at 1000 nM clinically relevant decitabine dose (P values are calculated by student Test). Cells are gated on live cells. Blast cells in AML cell lines were defined as CD33 or CD34 positive. Primary HSCs were defined as CD45^dimSSC^lowCD34^highCD38− and multipotent progenitors were defined as CD34^highCD38+, data represents mean of four normal donors and the error bars represent Standard deviation. Fold change in CD123 Mean Fluorescence Intensity (MFI) with respect to DMSO treated cells is presented.
(§2) CD34 enriched bone marrow was purchase from AllCells.

[2] = test system: AML cells; assay: CD123 expression in AML cells quantitated by fluorescence-activated cell sorting; format: cell-based
[3] = test system: SKM1 cell line; assay: CD123 MFI by flow cytometry, SKM1; format: cell-based; settings: for CD123 MFI (dose dependent increase): SKM1, 0.46-3000 nM, day 7; for CD123 expression at clinically relevant dose (FIG. 2c): 1000 nM
Procedure: as §1
(§3) SKM1, Kasumi-1 and MOLM-13 cell lines were maintained in 80% RPMI 1640+20% FBS according to manufacturer's instructions. Logarithmically growing SKM1, Kasumi-1 and MOLM-13 cell lines were plated at 7,500 cells per well in 384 well microtiter plates and treated with drugs in triplicate using an acoustic liquid handler using protocol (P.SOP.007.02_Compound Addition Using GBG).
(§4) The following compounds were serially dosed in 24-hour intervals using an acoustic liquid handler. Decitabine, 5-azacytidine and guadecitabine were dosed at 3000, 1000, 333.33, 111.11, 37.04, 12.35, 4.12, 1.37 and 0.46 nM at 0, 24 and 48 hours. In addition, guadecitabine was dosed at 3000, 1000, 333.33, 111.11, 37.04, 12.35, 4.12, 1.37 and 0.46 nM at 0 hours without serial dosing (single dose). The dose range of the compounds was determined by back calculating the clinical dose and corresponding to a plasma concentration at 1.5 hours after standard dosing. The 1000 nM concentration of decitabine is based on the clinical dose of 20 mg/m^2, 1-hour intravenous infusion, one time per day for five consecutive days every 4 weeks and the maximum plasma concentration after standard dosing (1.15 micromolar). Decitabine doses in the study were selected above and below this dose. The 1000 nM concentration of 5-azacytidine is based on the clinical dose of 75 mg/m^2/day for 7 days every 28 days and the plasma concentration at 1.5 hours after standard dosing. 5-Azacytidine doses in the study were selected above and below this dose. Guadecitabine regimen is 60 mg/m^2 given subcutaneously daily on Days 1-5 in 28-day cycles (delayed as needed to allow blood count recovery). The clinically relevant guadecitabine dose is 211 nM. Cells were stained at day 0, day 3 and day 7 following cell plating samples were stained with the antibody panel details below and readout with an lntellicyt iQue Plus flow cytometer.
(§5) Cells were stained using Notable labs no wash protocol number (P.SOP.009.01_Screen Readout Automated), briefly, antibodies are added to cells with an acoustic liquid handler, incubated at 4° C. for 20 minutes and readout with an Intellicyt iQue Plus flow cytometer. Staining Panel for Cell lines: DAPI, CD123, PDL1, CD34, CD33, CD15, CD38. Live cells were gated using FSC/SSC and DAPI exclusion using FlowJo analysis software (BeckmanFLow), and then further defined by cell surface marker expression. Absolute counts or Mean Fluorescence Intensity from triplicate wells were averaged and fold change was calculated with respect to a vehicle-only (DMSO) control.

[4] = test system: Kasumi-1; assay: CD123 MFI by flow cytometry, Kasumi-1; format: cell-based; settings: 0.46-3000 nM, day 7
Procedure: as §1
(§6) SKM1, Kasumi-1 and MOLM-13 cell lines were maintained in 80% RPMI 1640+20% FBS according to manufacturer's instructions. […]
(§7) The following compounds were serially dosed in 24-hour intervals using an acoustic liquid handler. […] The dose range of the compounds was determined by back calculating the clinical dose and corresponding to a plasma concentration at 1.5 hours after standard dosing. […] Cells were stained at day 0, day 3 and day 7 following cell plating samples were stained with the antibody panel details below and readout with an lntellicyt iQue Plus flow cytometer.
(§8) Cells were stained using Notable labs no wash protocol number (P.SOP.009.01_Screen Readout Automated), briefly, antibodies are added to cells with an acoustic liquid handler, incubated at 4° C. for 20 minutes and readout with an Intellicyt iQue Plus flow cytometer. […]

[5] = test system: PD-L1 expression in AML cell lines and primary bone marrow HSCs/MMPs; assay: PD-L1 expression by flow cytometry, AML cell lines and primary bone marrow cells; format: cell-based; settings: any dose; all cell lines and primary bone marrow HSCs or MMPs
From the text: Cells are gated on live cells. Blast cells in AML cell lines were defined as CD33 or CD34 positive. Primary HSCs were defined as CD45^dimSSC^lowCD34^highCD38− and multipotent progenitors were defined as CD34^highCD38+, data represents mean of four normal donors and the error bars represent Standard deviation.
as §3
as §7, with “handler. Decitabine, 5-azacytidine and guadecitabine were dosed at 3000, 1000, 333.33, 111.11, 37.04, 12.35, 4.12, 1.37 and 0.46 nM at 0, 24 and 48 hours.” for “handler.”
Cells were stained using Notable labs no wash protocol number (P.SOP.009.01_Screen Readout Automated), briefly, antibodies are added to cells with an acoustic liquid handler, incubated at 4° C. for 20 minutes and readout with an Intellicyt iQue Plus flow cytometer. […] Absolute counts or Mean Fluorescence Intensity from triplicate wells were averaged and fold change was calculated with respect to a vehicle-only (DMSO) control.
CD34 enriched bone marrow was purchase from AllCells. […] Cells were stained at day 0 and day 7 following cell plating samples were stained with the antibody panel details below and readout with an Intellicyt iQue Plus flow cytometer. Cells were stained using Notable labs staining protocol number (P.SOP.009.01_Screen Readout Automated). […]

[6] = test system: MOLM-13; assay: CD123 MFI by flow cytometry, MOLM-13; format: cell-based; settings: 0.46-3000 nM, day 7
Procedure: as §1, §6, §7, §8

[7] = test system: AML cell lines Kasumi-1, SKM-1 and MOLM-13; assay: Live cell counts by flow cytometry (DAPI exclusion), AML cell lines; format: cell-based; settings: for cell numbers (dose dependent decline): day 3, 0.46-3000 nM dosed at 0, 24 and 48 hours
Procedure: (§9) Number of live cells was determined by excluding DAPI+ dead cells in each well. Average of triplicates is presented on the graph.
as §3, §4, §5

[8] = test system: CD34+CD38+ Multipotent progenitors (MMPs) and CD34+CD38− Hematopoietic Stem Cells (HSCs); assay: Live cell counts by flow cytometry, normal donor CD34+ bone marrow cells; settings: for cell counts (dose dependent decline): primary MMPs and HSCs, 0.46-3000 nM
Procedure: as §9
CD34 enriched bone marrow was purchase from AllCells. Fresh (never frozen) cells were plated at 15,000 cells per well in 384 well microtiter plates and treated with drugs in triplicate using an acoustic liquid handler. The following compounds were dosed serial in 24-hour intervals: decitabine, guadecitabine and 5-azacytidine were dosed at 3000, 1000, 333.33, 111.11, 37.04, 12.35, 4.12, 1.37 and 0.46 nM at 0, 24 and 48 hours. In addition, auadecitabine was dosed at 3000, 1000, 333.33, 111.11, 37.04, 12.35, 4.12, 1.37 and 0.46 nM at 0 hours without serial dosing (single dose). Cells were stained at day 0 and day 7 following cell plating samples were stained with the antibody panel details below and readout with an Intellicyt iQue Plus flow cytometer. Cells were stained using Notable labs staining protocol number (P.SOP.009.01_Screen Readout Automated). Staining Panel for Healthy CD34+ Bone Marrow: DAPI, CD45, CD3, CD19, CD16, CD14, CD38, CD33, CD34, CD90, CD123, CD274. Live cells were gated using FSC/SSC and DAPI exclusion using FlowJo analysis software (Beckman Flow), and then further defined by cell surface marker expression. Absolute counts from triplicate wells were averaged and normalized to a vehicle-only (DMSO) control.

[9] = clinical dose 20 mg/m^2, 1-hour intravenous infusion, once per day for five consecutive days every 4 weeks; cited from earlier work
[10] = test system: CD38+CD34+ MMPs; assay: CD123 expression by flow cytometry, primary multipotent progenitors; format: cell-based; settings: for average increase in CD123 expression vs DMSO / CD123 expression at clinically relevant dose (FIG. 2c): MMPs
From the text: as §1, with “(c) Fold change in CD123 MFI at 1000 nM clinically relevant decitabine dose (P values are calculated by student Test).” left out
as §2

[11] = test system: AML patients
Procedure: Fifteen AML patients treated in our ongoing first in human phase 1 clinical trial (NCT0262355) evaluating CD123CAR T cells in patients with relapsed or refractory AML or blastic plasmacytoid dendritic cell neoplasm (BPDCN) received lymphodepletion prior to CAR T cell infusion on day 0. All received fludarabine (25-30 mg/m2/day) and cyclophosphamide (300-500 mg/m2/day). Both were administered daily from days −5 to −3. Eight also received decitabine (20 mg/m2/day) given daily for 5 days from days −7 to −3 or daily for 3 days from days −5 to −3.

[12] = test system: Hematopoietic stem cells (HSCs); assay: CD123 expression by flow cytometry, primary hematopoietic stem cells; format: cell-based; settings: for CD123 expression at clinically relevant dose (FIG. 2c): HSC; for increase in CD123 expression vs DMSO: HSCs
From the text: as §1, with “(c) Fold change in CD123 MFI at 1000 nM clinically relevant decitabine dose (P values are calculated by student Test).” left out
as §2

[13] = test system: AML blasts; settings: in vitro; reported; cited from earlier work
[14] = 5 day treatment, decitabine p<0.001, azacitidine p<0.05

## Nc1ncn([C@@H]2O[C@H](CO)[C@@H](O)[C@H]2O)c(=O)n1 [5-azacytidine]
[1]
  CD123 MFI / expression in primary bone marrow cells: highly variable
[2]; [14]
  CD123 expression in AML cells: significant increase
[3]
  CD123 MFI (dose dependent increase): did not impact
[4]
  CD123 MFI (dose dependent increase): did not impact
[5]
  PD-L1 expression: no impact
[6]
  CD123 MFI (dose dependent increase): did not impact
[7]
  cell numbers (dose dependent decline): dose dependent decline
[8]
  cell counts (dose dependent decline): dose dependent decline

## CN[C@@H]1C[C@H]2O[C@@](C)([C@@H]1OC)n1c3ccccc3c3c4c(c5c6ccccc6n2c5c31)C(=O)NC4 [Staurosporine]
[7]; positive control for cell death, all cell line groups
  viable cells: significant reductions
[8]; positive control for cell death, primary cell groups
  viable cells: significant reductions

## Nc1ncn([C@H]2C[C@H](O)[C@@H](CO)O2)c(=O)n1 [decitabine]
[1]; 3000 nM, FIG. 2b
  CD123 MFI with respect to DMSO treated cells: no change
[1]; clinically relevant dose of 1000 nM
  CD123 MFI in primary CD34+ bone marrow cells: increase
[1]
  CD123 MFI / expression in primary bone marrow cells: upregulates
[2]; 3 day treatment, p<0.001
  CD123 expression in AML cells: significant increase
[2]; [14]
  CD123 expression in AML cells: significant increase
[3]
  CD123 expression at clinically relevant dose (FIG. 2c): significantly enhanced
  CD123 MFI (dose dependent increase): upregulates
[3]; listed as Decitabine
  CD123 MFI (dose dependent increase): dose dependent increase
[9]
  maximum plasma concentration after standard dosing: 1.15 µM
[10]; 111.11 nM
  average increase in CD123 expression vs DMSO: 1.4 fold
[10]; 333.33 nM
  average increase in CD123 expression vs DMSO: 1.4 fold
[10]; 1000 nM
  CD123 expression at clinically relevant dose (FIG. 2c): significantly enhanced
  average increase in CD123 expression vs DMSO: 1.3 fold
[11]; 8 patients with decitabine vs 7 without
  treatment related adverse events in decitabine treated group: not observed increased treatment related adverse events
[11]; AML patients, fludarabine and cyclophosphamide lymphodepletion, eight also decitabine 20 mg/m2/day, CAR T infusion day 0
  tolerability / dose limiting toxicities: well tolerated
[12]; 1000 nM
  CD123 expression at clinically relevant dose (FIG. 2c): significantly enhanced
  increase in CD123 expression vs DMSO: 1.4 fold
[12]; 111.11 nM
  increase in CD123 expression vs DMSO: 1.3 fold
[12]; 333.33 nM
  increase in CD123 expression vs DMSO: 1.6 fold
[5]
  PD-L1 expression: no impact
[13]
  CD123 expression in AML blasts: upregulate
[7]
  cell numbers (dose dependent decline): dose dependent decline
[8]; 3000 nM, FIG. 1b
  cell death at high dose: cell death
[8]
  cell counts (dose dependent decline): dose dependent decline

## Nc1ncn([C@H]2C[C@H](OP(=O)(O)OC[C@H]3O[C@@H](n4cnc5c(=O)[nH]c(N)nc54)C[C@@H]3O)[C@@H](CO)O2)c(=O)n1 [guadecitabine]
[3]
  CD123 expression at clinically relevant dose (FIG. 2c): significantly enhanced
  CD123 MFI (dose dependent increase): increase in CD123 MFI in a dose dependent manner
[10]; 1000 nM
  CD123 expression at clinically relevant dose (FIG. 2c): significantly enhanced
[10]; normal bone marrow MMPs, regardless of the dose
  change in CD123 expression: did not show any change
[12]; 1000 nM
  CD123 expression at clinically relevant dose (FIG. 2c): significantly enhanced
[12]; normal bone marrow HSCs, regardless of the dose
  change in CD123 expression: did not show any change
[5]
  PD-L1 expression: no impact
[7]
  cell numbers (dose dependent decline): dose dependent decline
